Assay results: US20100267561A1, “HERBICIDAL PYRIDAZINONE DERIVATIVES” (priority 2007, published 2010)

Experiments:
Assay in all cases: Test B pre-/postemergence plant response
Format in all cases: in vivo
[1] = system: morningglory (Ipomoea coccinea); settings: for Morningglory plant response rating: 8 g ai/ha
In short: (§1)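 Preemergence and postemergence (plants 2-18 cm, 1- to 4-leaf stage) applications used test chemicals in a non-phytotoxic solvent with surfactant. Plants were held in a greenhouse 13 to 15 days, then rated visually against controls on a 0-100 scale (0 no effect, 100 complete control).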

[2] = system: catchweed bedstraw (Galium aparine); settings: Preemergence; for Galium plant response rating: 8 g ai/ha
In short: as §1

[3] = system: blackgrass (Alopecurus myosuroides); settings: for Blackgrass plant response rating: 8 g ai/ha
In short: as §1

[4] = system: Italian ryegrass (Lolium multiflorum); settings: for Ryegrass, Italian plant response rating: 8 g ai/ha
In short: as §1

[5] = system: woolly cupgrass (Eriochloa villosa); settings: for Cupgrass, Woolly plant response rating: 8 g ai/ha
In short: as §1

[6] = system: johnsongrass (Sorghum halepense); settings: for Johnsongrass plant response rating: 8 g ai/ha
In short: as §1

[7] = system: downy bromegrass (Bromus tectorum); settings: for Bromegrass, Downy plant response rating: 8 g ai/ha
In short: as §1

[8] = system: giant foxtail (Setaria faberii); settings: for Foxtail, Giant plant response rating: 8 g ai/ha
In short: as §1

wild oat (Avena fatua) = settings: for Oat, Wild plant response rating: 8 g ai/ha
In short: as §1

[9] = system: velvetleaf (Abutilon theophrasti); settings: for Velvetleaf plant response rating: 8 g ai/ha
In short: as §1

[10] = system: green foxtail (Setaria viridis); settings: for Foxtail, Green plant response rating: 8 g ai/ha
In short: as §1

[11] = system: yellow nutsedge (Cyperus esculentus); settings: for Nutsedge, Yellow plant response rating: 8 g ai/ha
In short: as §1

[12] = system: eastern black (E.B.) nightshade (Solanum ptycanthum); settings: Preemergence; for Nightshade, E. B. plant response rating: 8 g ai/ha
In short: as §1

[13] = system: pigweed (Amaranthus retroflexus); settings: for Pigweed plant response rating: 8 g ai/ha
In short: as §1

[14] = Postemergence, 16 g ai/ha, scale 0 to 100
[15] = Postemergence, 31 g ai/ha, scale 0 to 100, 0 no effect, 100 complete control
[16] = Postemergence, 62 g ai/ha, scale 0 to 100, 0 no effect, 100 complete control
[17] = Preemergence, 16 g ai/ha, scale 0 to 100 (0 no effect, 100 complete control)
[18] = Preemergence, 31 g ai/ha, 0 to 100 scale, 0 no effect, 100 complete control
[19] = Preemergence, 62 g ai/ha, scale 0 to 100
[20] = 16 g ai/ha, scale 0 to 100 (0 no effect, 100 complete control)
[21] = 31 g ai/ha, 0 to 100 scale, 0 no effect, 100 complete control
[22] = Preemergence, 31 g ai/ha, scale 0 to 100 (0 no effect, 100 complete control)

Cc1cc(-c2ccc(Cl)cc2)nn1-c1c(OC(=O)c2cccc(Cl)c2)cnn(C)c1=O [Compound 32]
85: Plant response rating, Blackgrass [3, 17] | Plant response rating, Ryegrass, Italian [4, 14] | Plant response rating, Cupgrass, Woolly [5, 14] | Plant response rating, Cupgrass, Woolly [5, 19] | Plant response rating, Johnsongrass [6, 18] | Foxtail, Giant plant response rating ([8]; Preemergence, scale 0 to 100) | Plant response rating, Oat, Wild (wild oat (Avena fatua); [14])
30: Blackgrass plant response rating ([3]; postemergence, 0-100 scale)
50: Johnsongrass plant response rating ([6]; postemergence, 0-100 scale)
75: Cupgrass, Woolly plant response rating ([5]; postemergence, 0-100 scale) | Plant response rating, Johnsongrass [6, 17] | Plant response rating, Bromegrass, Downy [7, 19] | Foxtail, Giant plant response rating ([8]; postemergence, 0-100 scale)
100: Plant response rating, Ryegrass, Italian [4, 17] | Plant response rating, Ryegrass, Italian [4, 18] | Plant response rating, Ryegrass, Italian [4, 19] | Plant response rating, Cupgrass, Woolly [5, 15] | Plant response rating, Cupgrass, Woolly [5, 16] | Plant response rating, Foxtail, Giant [8, 16] | Plant response rating, Foxtail, Giant [8, 18] | Plant response rating, Foxtail, Giant [8, 19] | Plant response rating, Foxtail, Green [10, 17] | Plant response rating, Foxtail, Green [10, 18] | Plant response rating, Foxtail, Green [10, 19]
95: Plant response rating, Blackgrass [3, 18] | Plant response rating, Ryegrass, Italian [4, 15] | Plant response rating, Ryegrass, Italian [4, 16] | Plant response rating, Foxtail, Giant [8, 17] | Plant response rating, Oat, Wild (wild oat (Avena fatua); [15]) | Plant response rating, Oat, Wild (wild oat (Avena fatua); [16]) | Plant response rating, Foxtail, Green [10, 16]
10: Plant response rating, Bromegrass, Downy [7, 14]
0: Morningglory plant response rating ([1]; postemergence, 0-100 scale) | Plant response rating, Morningglory [1, 14] | Plant response rating, Morningglory [1, 15] | Plant response rating, Morningglory [1, 16] | Plant response rating, Morningglory [1, 17] | Plant response rating, Morningglory [1, 18] | Plant response rating, Morningglory [1, 19] | Morningglory plant response rating ([1]; Preemergence, scale 0 to 100) | Plant response rating, Galium [2, 20] | Plant response rating, Galium [2, 21] | Plant response rating, Galium ([2]; 62 g ai/ha, scale 0 to 100) | Galium plant response rating ([2]; scale 0 to 100) | Plant response rating, Bromegrass, Downy [7, 17] | Plant response rating, Bromegrass, Downy [7, 18] | Bromegrass, Downy plant response rating ([7]; Preemergence, scale 0 to 100) | Plant response rating, Oat, Wild (wild oat (Avena fatua); [17]) | Oat, Wild plant response rating (wild oat (Avena fatua); Preemergence, scale 0 to 100) | Velvetleaf plant response rating ([9]; postemergence, 0-100 scale) | Plant response rating, Velvetleaf [9, 14] | Plant response rating, Velvetleaf [9, 16] | Plant response rating, Velvetleaf [9, 17] | Plant response rating, Velvetleaf [9, 18] | Plant response rating, Velvetleaf [9, 19] | Velvetleaf plant response rating ([9]; Preemergence, scale 0 to 100) | Nutsedge, Yellow plant response rating ([11]; postemergence, 0-100 scale) | Plant response rating, Nutsedge, Yellow [11, 14] | Plant response rating, Nutsedge, Yellow [11, 15] | Plant response rating, Nutsedge, Yellow [11, 16] | Plant response rating, Nutsedge, Yellow [11, 17] | Plant response rating, Nutsedge, Yellow [11, 18] | Plant response rating, Nutsedge, Yellow [11, 19] | Nutsedge, Yellow plant response rating ([11]; Preemergence, scale 0 to 100) | Plant response rating, Nightshade, E. B. [12, 20] | Plant response rating, Nightshade, E. B. [12, 21] | Plant response rating, Nightshade, E. B. ([12]; 62 g ai/ha, scale 0 to 100) | Nightshade, E. B. plant response rating ([12]; scale 0 to 100) | Pigweed plant response rating ([13]; postemergence, 0-100 scale) | Plant response rating, Pigweed [13, 14] | Plant response rating, Pigweed [13, 15] | Plant response rating, Pigweed [13, 16] | Plant response rating, Pigweed [13, 17] | Plant response rating, Pigweed [13, 18] | Plant response rating, Pigweed [13, 19] | Pigweed plant response rating ([13]; Preemergence, scale 0 to 100)
60: Plant response rating, Bromegrass, Downy [7, 16] | Oat, Wild plant response rating (wild oat (Avena fatua); postemergence, 0-100 scale) | Plant response rating, Oat, Wild (wild oat (Avena fatua); [18]) | Foxtail, Green plant response rating ([10]; postemergence, 0-100 scale) | Plant response rating, Foxtail, Green [10, 14]
98: Plant response rating, Blackgrass [3, 19] | Plant response rating, Johnsongrass [6, 15] | Plant response rating, Johnsongrass [6, 16] | Plant response rating, Foxtail, Giant [8, 15]
55: Cupgrass, Woolly plant response rating ([5]; Preemergence, scale 0 to 100)
65: Johnsongrass plant response rating ([6]; Preemergence, scale 0 to 100)
35: Plant response rating, Blackgrass [3, 14]
80: Plant response rating, Cupgrass, Woolly [5, 18] | Plant response rating, Foxtail, Giant [8, 14] | Plant response rating, Oat, Wild (wild oat (Avena fatua); [19])
90: Ryegrass, Italian plant response rating ([4]; Preemergence, scale 0 to 100) | Plant response rating, Johnsongrass [6, 19] | Plant response rating, Foxtail, Green [10, 15]
70: Plant response rating, Blackgrass [3, 15] | Plant response rating, Blackgrass [3, 16] | Plant response rating, Cupgrass, Woolly [5, 17] | Plant response rating, Johnsongrass [6, 14] | Foxtail, Green plant response rating ([10]; Preemergence, scale 0 to 100)
45: Plant response rating, Bromegrass, Downy [7, 15]
5: Ryegrass, Italian plant response rating ([4]; postemergence, 0-100 scale) | Bromegrass, Downy plant response rating ([7]; postemergence, 0-100 scale)

Cc1ccc(-c2ccc(Cl)cc2)cc1-c1c(O)cnn(C)c1=O [Compound 46]
15: Plant response rating, Foxtail, Giant [8, 17]
60: Plant response rating, Pigweed [13, 22]
90: Plant response rating, Johnsongrass [6, 19]
40: Plant response rating, Blackgrass [3, 18] | Plant response rating, Ryegrass, Italian [4, 22]
5: Plant response rating, Bromegrass, Downy [7, 19]
55: Plant response rating, Johnsongrass [6, 17]
85: Plant response rating, Blackgrass [3, 19] | Plant response rating, Cupgrass, Woolly [5, 18] | Plant response rating, Johnsongrass [6, 18]
98: Plant response rating, Cupgrass, Woolly [5, 19]
100: Plant response rating, Ryegrass, Italian [4, 19] | Plant response rating, Foxtail, Giant [8, 19] | Plant response rating, Foxtail, Green [10, 19] | Plant response rating, Nightshade, E. B. ([12]; 62 g ai/ha, scale 0 to 100) | Plant response rating, Pigweed [13, 19]
95: Plant response rating, Foxtail, Giant [8, 18]
80: Plant response rating, Foxtail, Green [10, 18]
35: Plant response rating, Oat, Wild (wild oat (Avena fatua); [19])
30: Plant response rating, Blackgrass [3, 17]
20: Plant response rating, Nightshade, E. B. ([12]; 31 g ai/ha, scale 0 to 100 (0 no effect, 100 complete control))
0: Plant response rating, Morningglory [1, 17] | Plant response rating, Morningglory [1, 22] | Plant response rating, Morningglory [1, 19] | Morningglory plant response rating ([1]; Preemergence, scale 0 to 100) | Plant response rating, Galium [2, 20] | Plant response rating, Galium [2, 21] | Plant response rating, Galium ([2]; 62 g ai/ha, scale 0 to 100) | Galium plant response rating ([2]; scale 0 to 100) | Blackgrass plant response rating ([3]; Preemergence, scale 0 to 100) | Ryegrass, Italian plant response rating ([4]; Preemergence, scale 0 to 100) | Plant response rating, Cupgrass, Woolly [5, 17] | Cupgrass, Woolly plant response rating ([5]; Preemergence, scale 0 to 100) | Plant response rating, Bromegrass, Downy [7, 17] | Plant response rating, Bromegrass, Downy [7, 18] | Bromegrass, Downy plant response rating ([7]; Preemergence, scale 0 to 100) | Foxtail, Giant plant response rating ([8]; Preemergence, scale 0 to 100) | Plant response rating, Oat, Wild (wild oat (Avena fatua); [17]) | Plant response rating, Oat, Wild (wild oat (Avena fatua); [22]) | Oat, Wild plant response rating (wild oat (Avena fatua); Preemergence, scale 0 to 100) | Plant response rating, Velvetleaf [9, 17] | Plant response rating, Velvetleaf [9, 22] | Plant response rating, Velvetleaf ([9]; Preemergence, 62 g ai/ha, 0 to 100 scale, 0 no effect, 100 complete control) | Velvetleaf plant response rating ([9]; Preemergence, scale 0 to 100) | Foxtail, Green plant response rating ([10]; Preemergence, scale 0 to 100) | Plant response rating, Nutsedge, Yellow [11, 17] | Plant response rating, Nutsedge, Yellow [11, 22] | Plant response rating, Nutsedge, Yellow [11, 19] | Nutsedge, Yellow plant response rating ([11]; Preemergence, scale 0 to 100) | Plant response rating, Nightshade, E. B. [12, 20] | Nightshade, E. B. plant response rating ([12]; scale 0 to 100) | Plant response rating, Pigweed [13, 17] | Pigweed plant response rating ([13]; Preemergence, scale 0 to 100)
10: Plant response rating, Ryegrass, Italian [4, 17] | Plant response rating, Foxtail, Green [10, 17]
